# Where “and” joins values, the source holds several entries; their conditions need not be identical. Identical values can stand only once. Entries after “also recorded” stand apart in the source; their conditions may differ. Like-named read-outs stand apart in the source and are kept apart here.
# Key:
# [1] = test system: AVM-NKT cells (CD3highCD49b+); assay type: in vivo, mouse
# Description: Mice were anesthetized with isoflurane gas.
# [2] = test system: peripheral blood mononuclear cells or single cell splenocytes; test: In vitro apoptosis of mononuclear cells or splenocytes incubated with AVM0703; assay type: cell-based, mouse; conditions: concentrations equivalent to in vivo peak blood concentrations of acute high dose, out to 72 hours
# [3] = test system: A20 B cell lymphoma
# Method: FIG. 10B. […] Mice were inoculated with A20 lymphoma 2×10^6 cells in 100 μL of PBS mixed with 100 μL of chilled Matrigel into their flank. Three, 24 and 48 hours later mice were euthanized and tumors, blood, bone marrow and thymus were taken and made into single cell suspensions for flow cytometry detection of live A20 cells.
# [4] = test system: R/R NHL; test: AVM0703 R/R NHL clinical trial, clinical and PET/CT response, survival; assay type: in vivo, human
# [5] = test system: hCD45+CD56+γδTCR+invTCR+ cells; test: Humanized mice experiments LYDEP 43 and 45, flow cytometry of blood and bone marrow; assay type: in vivo, mouse
# Method: Female huNOG-EXL mice (n=6) were obtained from Taconic Bioscience (Germantown, NY). Female huCD34-NCG mice (n=8) were obtained from Charles River (Wilmington, MA). Mice from both facilities were acclimated to laboratory conditions for at least 5-6 days.
# After first (03/01/2021) and second dose 1 week later (03/08/2021), when mice reached predetermined time point, they were bled up to 70 μL of blood/mouse via cheek puncture. The blood was analyzed via flow cytometry. After third dose 28 days after the previous dose (on Apr. 5, 2021), when mice reached the study time point, they were euthanized under standard operating procedure summarized here: Mice were anesthetized with isoflurane gas.
# Spleen, Thymus, femurs, and sternum were collected for all mice. Spleen and thymus were processed into single cell suspension for analysis via flow cytometry. Bones were cleaned of muscle using gauze soaked with 70% ethanol and processed for bone marrow to analyze via flow cytometry. Pancreas and colon dissection were performed according to video and instructional JoVE files. The feces were expelled via administering ice-cold PBS with a 22-gauge gavage tube from colon. Other organs like small intestines, cecum, kidneys, lungs, and liver were also collected. All organ weights were recorded after removing excess liquid from the exterior. Soft organs were first fixed in 4% PFA and then transferred to 70% ethanol 24 hrs later and stored at 4° C. Bones were stored directly in 70% ethanol at 4° C. Blood was processed for flow cytometry analysis, and serum collection.
# All flow cytometry was performed in house. Blood, spleen, thymus, and bone marrow were processed via standard staining protocol for flow cytometry. MACSQUANT 16 was used for flow cytometry. Antibody panels slightly varied between first, second and third dose. Markers in the flow panel after first dose analysis included Live/Dead, hCD45, mCD45, hCD56, hTCRgd, hCD3, hCD8, hCD16, hCD19, hCD14. Markers in the flow panel after second dose included all the above, plus hTCRab and hiTCR. In the blood analysis after second dose, 7AAD, CD14 and CD19 were included together in a dump channel. […] For the third dose panel design, when full sac was performed, all markers mentioned above were assigned unique channels to avoid overlap, but TCRab was not included in the final panel due to open channel limitations.
# For cheek bleeds, 70 ul of blood was collected in EDTA coated microtainer and proceeded for immunostaining. […] Blood was stained for live dead marker for 10 min at Room temperature and then for the surface antibodies mentioned above for 20 minutes at room temperature in dark. RBCs were lysed with BD FACS lysing buffer and washed with DPBS and resuspended in 300 ul DBPS. 250 ul of sample was run on MACSquant 16 flow cytometer.
# [6] = patient 108-001, after the second 9 mg/kg infusion
# [7] = CR (Charles River) humanized mice, AVM0703 72 hrs
# [8] = Tac (Taconic) humanized mice, AVM0703 72 hrs
# [9] = blood, mouse 10 Taconic NOG-EXL, FIG. 24
smiles,measurement,setting,value
"C[C@@H]1C[C@H]2[C@@H]3CCC4=CC(=O)C=C[C@]4(C)[C@@]3(F)[C@@H](O)C[C@]2(C)[C@@]1(O)C(=O)COP(=O)(O)O [AVM0703, dexamethasone sodium phosphate]",location of induced AVM-NKT cells,"[1]; naïve male Balb/c mice, 48 hours after doses about 29 mg/kg and higher (given as DP)",Induced in Bone Marrow and Fat Tissue
same,location of induced AVM-NKT cells,[1]; naïve male C57Bl/6 mice,in blood
same,"Presence of AVM-NKT cells, 48 hrs spleen",[1]; naïve mice,positive
same,apoptosis,[2],no apoptosis was observed
same,time of maximal ablation of A20 lymphoma implanted in the flank,[3]; 18 mg/kg HED,~3 h
same,"Presence of AVM-NKT cells, 48 hrs blood",[3]; A20 model,negative
same,growth of the A20 B cell lymphoma,"[3]; HED 18.1 mg/kg PO, repeat dosing, vs placebo",significantly delays growth
same,location of AVM-NKT cells,[3]; male tumor bearing Balb/c mice,in tumors
same,tumor necrosis,"[3]; study A20-3, dose response curve, 18&26 mg/kg, doses on days 10, 17, 25, 32, 39",18&26 mg/kg 50-80% necrotic
same,Survival from 1st AVM0703 (months),"[4]; patient 101-001, B-ALL, 6 mg/kg X1",4.8 months
same,Survival from 1st AVM0703 (months),"[4]; patient 103-002, PTCL, 6 mg/kg X1",7 months
same,Survival from 1st AVM0703 (months),"[4]; patient 103-004, T-ALL, 6 mg/kg X1",2.7 months
same,Survival from 1st AVM0703 (months),"[4]; patient 103-005, MCL, 9 mg/kg X1",8.3 months
same,Survival from 1st AVM0703 (months),"[4]; patient 103-006, DLBCL, 9 mg/kg X1, ongoing",>12.6 months
same,Survival from 1st AVM0703 (months),"[4]; patient 103-007, MCL, 12 mg/kg X1, ongoing",>7.6 months
same,Survival from 1st AVM0703 (months),"[4]; patient 103-008, DLBCL, 18 mg/kg X1, ongoing",>2.1 months
same,clinical response,"[4]; patient 108-001, 9 mg/kg, day 3 after 1st infusion",restoration of vision
same,Survival from 1st AVM0703 (months),"[4]; patient 108-001, CNS B-ALL, 9 mg/kg X3, ongoing",>11.8 months
same,CNS solid tumor,[4]; [6],not evident
same,reduction of CSF blasts,[4]; [6],40%
same,response to the third infusion,"[4]; patient 108-001, third 9 mg/kg infusion",loss of response
same,Survival from 1st AVM0703 (months),"[4]; patient 108-002, PTCL, 18 mg/kg X1, ongoing",>10.3 months
same,central Lugano 28 Day,"[4]; patient 108-002, PTCL, 18 mg/kg, monotherapy",PR with SD
same,Survival from 1st AVM0703 (months),"[4]; patient 108-003, AITCL, 12 mg/kg X2, ongoing",>10.2 months
same,"objective beneficial response (PET/CT, clinical chemistries, CBCs or clinical symptoms)","[4]; patient 108-004, 12 mg/kg",did not have any objective clinical beneficial response; also recorded: did not have an objective beneficial response; also recorded: no response to treatment
same,Survival from 1st AVM0703 (months),"[4]; patient 108-004, DLBCL, 12 mg/kg X1, ongoing",>8 months
same,hCD45+(CD56+gdTCR+ inTCR+),[5]; [7],4.4% and 1.8% and 2.3% and 3.5%
same,hCD45+(CD56+gdTCR+),[5]; [7],4.7% and 6.3% and 1.1% and 1.6%
same,hCD45+(CD56+gdTCR+),"[5]; CR (Charles River) humanized mice, AVM0703 96 hrs",1.1% and 0.4% and 4.4% and 1.4%
same,hCD45+(CD56+gdTCR+ inTCR+),[5]; [8],0.7%
same,hCD45+(CD56+gdTCR+),[5]; [8],10.5% and 3.4%
same,hCD45+(CD56+gdTCR+ inTCR+),"[5]; Tac (Taconic) humanized mice, AVM0703 96 hrs",22.6% and 41.9%
same,% of hCD45+CD56+gdTCR+ cells expressing invariant TCR,"[5]; blood, CRL-NCG humanized mice, >18 mg/kg HED",More than 97%
same,"bi-specific immune cell mobilization, % of hCD45+ cells","[5]; blood, humanized mice, >18 mg/kg HED",2-12%
same,% of hCD45+ dim CD56+ gdTCR+ cells positive for CD8 and for CD16,[5]; [9],More than 80%
same,"CD56+ TCRγδ+ cells, % of hCD45+ cells",[5]; [9],12%
same,"bi-specific immune cells, % of hCD45+ cells","[5]; blood, mouse M1, CRL-NCG, >18 mg/kg HED",3.35%
same,"bi-specific immune cells, % of hCD45+ cells","[5]; blood, mouse M3, CRL-NCG, >18 mg/kg HED",4.13%
same,"bi-specific immune cells, % of hCD45+ cells","[5]; blood, mouse M5, CRL-NCG, >18 mg/kg HED",5.14%
same,"bi-specific immune cells, % of hCD45+ cells","[5]; blood, mouse M7, CRL-NCG, >18 mg/kg HED",2.37%
same,% of human CD45+CD56+ cells bispecific for TCRγδ and invariant TCR and CD16 positive,"[5]; bone marrow, 48-60 hours after a third repeat dose of 32 mg/kg HED",More than 60%
same,expression and mobilization of human CD56+γδTCR+invTCR+ immune cells,"[5]; both vendors, all 6 umbilical cord blood donors, 32 mg/kg DP oral",induced the expression and mobilization
same,% of bispecific γδTCR+invTCR+ bone marrow cells that are CD16+,"[5]; humanized mice, >18 mg/kg HED",Around 90%
same,"bi-specific immune cells in bone marrow, % of hCD45+ cells","[5]; humanized mice, >18 mg/kg HED",0.3-8.5%

# From patent US20240358829A1, “Lymphocyte Population and Methods for Producing Same” (AVM Biotechnology, LLC, priority 2021, published 2024)
